Results taken from ChEMBL document CHEMBL1201862, “PubChem BioAssay data set” (2004).
Calls of active or inactive are those of the source.

How the values were obtained:
Prothrombin = Prothrombin (Homo sapiens, UniProt P00734); assay: Thrombin 1536 HTS Dose Response Confirmation. [Related pubchem assays: 1046 (Thrombin 1536 HTS; hits were confirmed in this assay)]; format: functional
[1] = target: T1, Neuropeptide Y receptor type 1 (Homo sapiens, UniProt P25929); format: functional;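 also: HEK293 cells with a CNG channel challenged with NPY then isoproterenol; potency as antagonist that reverses NPY suppression of cAMP signal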
T1 sequence (P25929 whole entry): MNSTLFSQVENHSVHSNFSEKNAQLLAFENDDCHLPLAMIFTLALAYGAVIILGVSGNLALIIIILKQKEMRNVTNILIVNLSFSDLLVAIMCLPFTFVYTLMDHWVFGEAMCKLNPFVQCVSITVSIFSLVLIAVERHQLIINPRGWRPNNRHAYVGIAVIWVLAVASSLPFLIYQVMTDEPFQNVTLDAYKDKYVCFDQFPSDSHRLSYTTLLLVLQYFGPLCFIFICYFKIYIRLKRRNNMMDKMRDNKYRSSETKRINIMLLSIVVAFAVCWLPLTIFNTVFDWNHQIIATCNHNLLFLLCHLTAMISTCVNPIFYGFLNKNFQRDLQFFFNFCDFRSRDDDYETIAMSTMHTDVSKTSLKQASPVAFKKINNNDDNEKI

[2] = target: T2, Neuropeptide Y receptor type 2 (Homo sapiens, UniProt P49146); format: functional, cell-based;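 also: HEK293 cells expressing the receptor and a CNG channel; stimulus was NPY near EC95 followed by isoproterenol to raise cAMP; antagonist potency measured as restoring cAMP signal that NPY suppresses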
T2 sequence (P49146 whole entry): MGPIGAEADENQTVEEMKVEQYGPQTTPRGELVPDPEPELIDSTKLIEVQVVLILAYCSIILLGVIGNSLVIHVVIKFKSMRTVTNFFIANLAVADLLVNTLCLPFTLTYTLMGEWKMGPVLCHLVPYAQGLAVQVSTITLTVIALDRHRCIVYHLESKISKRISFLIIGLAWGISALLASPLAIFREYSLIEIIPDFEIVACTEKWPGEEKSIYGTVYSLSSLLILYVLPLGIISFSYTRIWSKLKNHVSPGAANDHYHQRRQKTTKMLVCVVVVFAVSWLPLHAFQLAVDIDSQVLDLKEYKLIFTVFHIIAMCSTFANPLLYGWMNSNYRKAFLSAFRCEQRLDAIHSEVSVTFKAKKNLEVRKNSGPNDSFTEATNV

[3] = target: T3, Heat shock factor protein 1 (Mus musculus, UniProt P38532); assay: inhibition of MG132-induced HSE-luciferase signal, confirmation, cell-based, NIH3T3, luminescence, dose retest (AID 2382); format: functional;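 also: NIH3T3 fibroblasts with HSF1-driven luciferase reporter stressed by proteasome inhibitor MG132; luminescence from HSF1-driven luciferase expression after 8 hours of MG132 stress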
T3 sequence (P38532 whole entry): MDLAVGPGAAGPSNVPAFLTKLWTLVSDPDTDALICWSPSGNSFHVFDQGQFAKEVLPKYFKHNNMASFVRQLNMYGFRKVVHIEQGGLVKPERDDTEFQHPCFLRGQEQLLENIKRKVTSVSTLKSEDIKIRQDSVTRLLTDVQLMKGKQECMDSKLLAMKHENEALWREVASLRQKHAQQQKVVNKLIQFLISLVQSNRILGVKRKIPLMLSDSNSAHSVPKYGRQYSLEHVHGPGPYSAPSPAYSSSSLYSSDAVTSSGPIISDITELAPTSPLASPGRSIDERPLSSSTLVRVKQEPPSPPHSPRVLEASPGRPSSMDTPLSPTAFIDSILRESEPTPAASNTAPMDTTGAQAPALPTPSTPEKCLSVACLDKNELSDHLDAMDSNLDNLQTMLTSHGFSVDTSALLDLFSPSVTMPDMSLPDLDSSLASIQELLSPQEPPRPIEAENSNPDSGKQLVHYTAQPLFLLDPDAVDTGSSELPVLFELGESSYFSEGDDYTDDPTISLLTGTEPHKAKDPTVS

Vero = assay: host cell cytotoxicity of antiviral hits, dose response, cytotoxicity control for West Nile virus antiviral project, secondary assay (AID 1650); format: functional; settings: Chlorocebus sabaeus
[4] = Luminescence Cell-Based Dose Retest to Confirm Inhibitors of Cancer Stem Cells. [Related pubchem assays (depositor defined):AID2717, AID2721]; format: functional; settings: Homo sapiens
Estrogen receptor beta [5] = target: T4, Estrogen receptor beta (Homo sapiens, UniProt Q92731);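 also: recombinant ER-beta bound to coactivator SRC1 peptide in presence of estradiol agonist; inhibitors block coactivator peptide binding and lower the FRET signal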
T4 sequence (Q92731 whole entry): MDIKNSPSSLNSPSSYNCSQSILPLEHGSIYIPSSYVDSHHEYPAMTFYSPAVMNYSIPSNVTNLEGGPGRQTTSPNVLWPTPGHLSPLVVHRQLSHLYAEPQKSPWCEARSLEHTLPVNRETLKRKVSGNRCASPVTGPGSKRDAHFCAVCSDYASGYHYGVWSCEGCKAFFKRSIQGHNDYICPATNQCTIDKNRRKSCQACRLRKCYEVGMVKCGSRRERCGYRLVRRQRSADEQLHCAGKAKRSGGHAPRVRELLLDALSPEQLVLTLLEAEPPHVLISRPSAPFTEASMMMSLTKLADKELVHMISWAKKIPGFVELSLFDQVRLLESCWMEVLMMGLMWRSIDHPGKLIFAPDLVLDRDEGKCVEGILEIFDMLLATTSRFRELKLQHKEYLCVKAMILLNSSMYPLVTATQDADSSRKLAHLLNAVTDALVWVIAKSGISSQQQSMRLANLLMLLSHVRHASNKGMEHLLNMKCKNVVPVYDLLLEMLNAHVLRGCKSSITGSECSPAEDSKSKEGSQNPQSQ

Estrogen receptor beta [6] = target: T4, Estrogen receptor beta; assay: ERβ–SRC-3 coactivator interaction inhibitors, confirmation, orthogonal assay, biochemical, ELISA, streptavidin-HRP readout (AID 1060)
[7] = target: Eukaryotic translation initiation factor 4E (Mus musculus, UniProt P63073); assay: eIF4E–eIF4G protein interaction inhibitors, dose response, biochemical, TR-FRET (AID 855); format: functional;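 also: potency for disrupting eIF4E binding to eIF4GI seen as loss of FRET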
Sequence of Eukaryotic translation initiation factor 4E (P63073 whole entry): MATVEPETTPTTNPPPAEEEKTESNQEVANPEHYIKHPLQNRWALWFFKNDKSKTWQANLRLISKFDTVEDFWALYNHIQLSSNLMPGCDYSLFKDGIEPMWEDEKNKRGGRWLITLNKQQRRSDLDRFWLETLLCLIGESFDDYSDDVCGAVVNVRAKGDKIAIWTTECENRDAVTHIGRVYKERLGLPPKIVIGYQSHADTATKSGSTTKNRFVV

Genome polyprotein = Genome polyprotein (dengue virus type 2, UniProt P29990); assay: Dengue-2 NS5 methyltransferase inhibitors, primary screen, biochemical, confirmation dose response (AID 588689); format: functional
Sequence of Genome polyprotein (P29990 2492-3391 limits assumed): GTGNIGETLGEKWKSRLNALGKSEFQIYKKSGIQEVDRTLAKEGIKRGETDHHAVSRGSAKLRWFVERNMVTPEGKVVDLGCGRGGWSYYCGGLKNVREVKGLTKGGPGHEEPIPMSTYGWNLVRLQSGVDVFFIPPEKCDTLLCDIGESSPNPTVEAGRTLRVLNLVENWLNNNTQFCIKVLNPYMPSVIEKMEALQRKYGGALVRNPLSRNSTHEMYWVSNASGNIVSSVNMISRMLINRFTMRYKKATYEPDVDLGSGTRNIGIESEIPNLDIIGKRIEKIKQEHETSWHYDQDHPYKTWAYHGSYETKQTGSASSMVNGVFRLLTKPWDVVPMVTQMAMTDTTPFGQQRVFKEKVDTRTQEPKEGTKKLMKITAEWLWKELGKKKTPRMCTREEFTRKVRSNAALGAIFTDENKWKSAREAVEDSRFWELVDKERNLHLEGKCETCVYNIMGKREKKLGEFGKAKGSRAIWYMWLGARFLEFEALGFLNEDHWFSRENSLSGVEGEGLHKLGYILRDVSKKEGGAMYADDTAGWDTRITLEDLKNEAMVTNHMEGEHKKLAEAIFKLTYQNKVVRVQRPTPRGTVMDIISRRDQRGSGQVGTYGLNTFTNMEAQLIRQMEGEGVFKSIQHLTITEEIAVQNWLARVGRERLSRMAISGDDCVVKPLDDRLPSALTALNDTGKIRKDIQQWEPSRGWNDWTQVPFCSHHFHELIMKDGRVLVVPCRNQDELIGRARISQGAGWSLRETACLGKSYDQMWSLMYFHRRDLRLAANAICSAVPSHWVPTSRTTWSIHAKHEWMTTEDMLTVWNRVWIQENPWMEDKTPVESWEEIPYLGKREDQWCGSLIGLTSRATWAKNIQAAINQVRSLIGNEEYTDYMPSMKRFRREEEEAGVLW

Fatty acid synthase [8] = target: T5, Fatty acid synthase (Homo sapiens, UniProt P49327); assay: FAS thioesterase domain inhibitors, dose response, biochemical, endpoint fluorescence intensity, uHTS hits (AID 624327); format: functional;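 also: fluorescence from hydrolysis of an O-methyl fluorescein acyl ester substrate by the enzyme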
T5 sequence (P49327 whole entry, the tested form may be a part): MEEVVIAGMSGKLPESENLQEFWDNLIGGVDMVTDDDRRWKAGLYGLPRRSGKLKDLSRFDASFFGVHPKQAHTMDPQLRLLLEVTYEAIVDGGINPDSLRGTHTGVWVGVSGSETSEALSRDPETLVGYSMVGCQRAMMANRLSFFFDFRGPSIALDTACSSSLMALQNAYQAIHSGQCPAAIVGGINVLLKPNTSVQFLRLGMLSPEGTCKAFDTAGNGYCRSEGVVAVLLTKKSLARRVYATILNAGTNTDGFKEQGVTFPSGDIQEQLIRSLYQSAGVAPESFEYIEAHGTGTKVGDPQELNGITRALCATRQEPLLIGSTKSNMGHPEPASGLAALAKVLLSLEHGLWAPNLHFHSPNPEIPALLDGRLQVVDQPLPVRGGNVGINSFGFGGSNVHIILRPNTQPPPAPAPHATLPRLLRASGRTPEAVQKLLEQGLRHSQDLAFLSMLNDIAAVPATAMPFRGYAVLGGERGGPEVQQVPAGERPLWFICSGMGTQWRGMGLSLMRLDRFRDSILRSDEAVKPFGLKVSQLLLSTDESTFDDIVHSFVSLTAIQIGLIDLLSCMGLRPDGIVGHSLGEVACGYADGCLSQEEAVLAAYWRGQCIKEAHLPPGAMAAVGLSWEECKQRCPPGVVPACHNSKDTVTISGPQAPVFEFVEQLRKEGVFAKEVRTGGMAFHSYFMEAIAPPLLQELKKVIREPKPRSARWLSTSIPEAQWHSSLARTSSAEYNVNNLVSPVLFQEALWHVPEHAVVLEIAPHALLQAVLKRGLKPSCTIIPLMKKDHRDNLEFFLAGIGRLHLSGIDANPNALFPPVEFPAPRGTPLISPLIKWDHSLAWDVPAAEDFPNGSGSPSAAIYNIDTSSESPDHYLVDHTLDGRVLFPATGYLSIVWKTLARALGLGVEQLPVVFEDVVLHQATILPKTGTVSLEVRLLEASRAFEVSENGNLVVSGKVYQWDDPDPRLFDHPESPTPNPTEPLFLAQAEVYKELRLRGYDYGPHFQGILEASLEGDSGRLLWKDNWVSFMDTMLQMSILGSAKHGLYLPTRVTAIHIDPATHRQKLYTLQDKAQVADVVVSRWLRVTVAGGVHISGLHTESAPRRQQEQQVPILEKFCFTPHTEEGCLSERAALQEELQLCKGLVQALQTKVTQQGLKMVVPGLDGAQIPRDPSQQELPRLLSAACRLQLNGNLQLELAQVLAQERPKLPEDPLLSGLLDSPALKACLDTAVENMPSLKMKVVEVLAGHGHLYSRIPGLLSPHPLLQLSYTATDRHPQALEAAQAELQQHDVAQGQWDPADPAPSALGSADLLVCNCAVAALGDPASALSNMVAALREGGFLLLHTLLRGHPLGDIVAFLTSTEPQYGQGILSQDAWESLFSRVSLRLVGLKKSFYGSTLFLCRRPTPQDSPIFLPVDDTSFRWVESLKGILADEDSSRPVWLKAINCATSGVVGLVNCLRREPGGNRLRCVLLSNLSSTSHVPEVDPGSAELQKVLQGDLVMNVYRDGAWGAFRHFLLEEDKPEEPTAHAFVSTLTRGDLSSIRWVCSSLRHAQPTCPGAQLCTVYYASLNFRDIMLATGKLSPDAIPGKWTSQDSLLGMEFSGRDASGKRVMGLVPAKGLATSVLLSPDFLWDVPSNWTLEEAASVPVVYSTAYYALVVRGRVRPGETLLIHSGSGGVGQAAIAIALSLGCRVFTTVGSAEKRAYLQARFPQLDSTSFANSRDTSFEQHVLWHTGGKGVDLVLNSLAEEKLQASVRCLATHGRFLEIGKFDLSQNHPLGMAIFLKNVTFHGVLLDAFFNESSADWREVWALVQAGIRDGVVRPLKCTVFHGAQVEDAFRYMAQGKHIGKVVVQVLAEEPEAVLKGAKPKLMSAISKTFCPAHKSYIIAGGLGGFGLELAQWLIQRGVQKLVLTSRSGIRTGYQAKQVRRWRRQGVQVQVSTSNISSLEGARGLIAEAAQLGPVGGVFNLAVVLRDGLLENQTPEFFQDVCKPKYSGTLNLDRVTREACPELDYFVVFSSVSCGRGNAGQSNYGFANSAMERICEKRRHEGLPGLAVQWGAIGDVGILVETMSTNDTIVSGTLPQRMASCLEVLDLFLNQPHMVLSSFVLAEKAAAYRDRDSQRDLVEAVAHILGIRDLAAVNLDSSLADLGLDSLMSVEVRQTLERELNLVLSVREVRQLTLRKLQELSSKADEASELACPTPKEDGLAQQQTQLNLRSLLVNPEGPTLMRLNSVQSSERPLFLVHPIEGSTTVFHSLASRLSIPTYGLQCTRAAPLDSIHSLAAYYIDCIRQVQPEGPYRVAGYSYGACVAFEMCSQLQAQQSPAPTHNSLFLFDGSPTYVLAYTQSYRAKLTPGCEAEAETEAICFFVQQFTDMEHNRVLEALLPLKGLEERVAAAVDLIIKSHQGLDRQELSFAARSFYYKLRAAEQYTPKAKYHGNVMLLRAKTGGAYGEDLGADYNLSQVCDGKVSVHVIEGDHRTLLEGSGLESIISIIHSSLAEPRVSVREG

Fatty acid synthase [9] = target: T5, Fatty acid synthase; assay: FAS thioesterase domain inhibitors, dose response, biochemical, kinetic fluorescence intensity (AID 624326); format: functional;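 also: rate of fluorescence rise from hydrolysis of a fluorogenic O-methyl fluorescein ester substrate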
[10] = A cytotoxicity screen of small molecule inhibitors of the PhoP region in Salmonella typhi identified in the primary screen. [Related pubchem assays: 1850, 1864, 1985 ]; format: functional
Cytochrome P450 2C9 = Cytochrome P450 2C9 (Homo sapiens, UniProt P11712)
Sequence of Cytochrome P450 2C9 (P11712 whole entry): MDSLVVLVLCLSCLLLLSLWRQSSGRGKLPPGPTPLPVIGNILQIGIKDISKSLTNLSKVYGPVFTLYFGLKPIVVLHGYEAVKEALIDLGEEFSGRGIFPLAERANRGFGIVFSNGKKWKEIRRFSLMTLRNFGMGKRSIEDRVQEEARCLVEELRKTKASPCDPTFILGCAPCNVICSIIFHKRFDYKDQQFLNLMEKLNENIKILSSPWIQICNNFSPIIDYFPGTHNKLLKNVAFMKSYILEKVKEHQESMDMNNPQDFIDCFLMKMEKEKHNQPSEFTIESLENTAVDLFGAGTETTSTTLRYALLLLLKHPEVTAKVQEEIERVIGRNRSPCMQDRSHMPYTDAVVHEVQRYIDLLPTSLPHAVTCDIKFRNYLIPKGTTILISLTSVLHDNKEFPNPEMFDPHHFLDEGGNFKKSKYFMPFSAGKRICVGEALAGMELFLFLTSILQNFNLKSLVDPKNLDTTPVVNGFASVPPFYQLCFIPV

Paired box protein Pax-8 = Paired box protein Pax-8 (Homo sapiens, UniProt Q06710); assay: inhibitors of PAX8-driven TPO luciferase reporter, dose response, RMG-I cells, cherry-pick (AID 687027); format: functional, cell-based;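 also: luciferase reporter driven by Pax8 target thyroperoxidase promoter measured by SteadyGlo luminescence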
Sequence of Paired box protein Pax-8 (Q06710 whole entry): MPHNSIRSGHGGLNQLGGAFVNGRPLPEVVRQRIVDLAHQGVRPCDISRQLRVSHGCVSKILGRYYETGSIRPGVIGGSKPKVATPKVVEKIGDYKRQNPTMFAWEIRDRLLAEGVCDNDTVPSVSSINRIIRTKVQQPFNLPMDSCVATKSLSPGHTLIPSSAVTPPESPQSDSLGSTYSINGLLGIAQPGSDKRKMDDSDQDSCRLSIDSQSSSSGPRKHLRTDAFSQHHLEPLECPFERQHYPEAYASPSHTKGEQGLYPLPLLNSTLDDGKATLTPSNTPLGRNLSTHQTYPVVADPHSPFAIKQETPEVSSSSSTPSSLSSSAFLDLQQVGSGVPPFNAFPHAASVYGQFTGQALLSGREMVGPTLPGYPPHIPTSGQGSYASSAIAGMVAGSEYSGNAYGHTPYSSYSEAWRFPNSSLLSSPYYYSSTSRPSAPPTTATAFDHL

[11] = NIH:OVCAR-3 ovarian cancer cell cytotoxicity, dose response, PAX8 inhibitor project, plate reader, dry powder samples (AID 743044); format: functional, cell-based
[12] = P. falciparum Dd2 growth inhibitors, dose response, SYBR Green, dry powder samples, set 9 (AID 1159568); format: functional, cell-based
[13] = P. falciparum 3D7-ScDHODH growth inhibitors, dose response, SYBR Green, dry powder samples (AID 1159570); format: functional, cell-based;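 also: parasite growth measured after 72 hours of compound exposure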
[14] = P. falciparum Dd2 growth inhibitors, dose response, SYBR Green, cherry-picked samples (AID 1159567); format: functional, cell-based
[15] = P. falciparum Dd2 growth inhibitors, dose response, SYBR Green, dry powder samples (AID 1159566); format: functional, cell-based;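 also: potency for growth inhibition with lower SYBR green DNA signal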
[16] = P. falciparum ATP4 D1247Y mutant growth inhibitors, dose response, NITD609-resistant line, SYBR Green, dry powder (AID 1159571); format: functional, cell-based;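 also: parasites synchronized at ring stage by sorbitol before testing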
[17] = target: T6, Replicative DNA helicase DnaB (Mycobacterium tuberculosis, UniProt P9WMR3); assay: DnaB intein splicing inhibitors, dose response, biochemical, cell-free fluorescence (AID 449749); format: functional
T6 sequence (P9WMR3 whole entry): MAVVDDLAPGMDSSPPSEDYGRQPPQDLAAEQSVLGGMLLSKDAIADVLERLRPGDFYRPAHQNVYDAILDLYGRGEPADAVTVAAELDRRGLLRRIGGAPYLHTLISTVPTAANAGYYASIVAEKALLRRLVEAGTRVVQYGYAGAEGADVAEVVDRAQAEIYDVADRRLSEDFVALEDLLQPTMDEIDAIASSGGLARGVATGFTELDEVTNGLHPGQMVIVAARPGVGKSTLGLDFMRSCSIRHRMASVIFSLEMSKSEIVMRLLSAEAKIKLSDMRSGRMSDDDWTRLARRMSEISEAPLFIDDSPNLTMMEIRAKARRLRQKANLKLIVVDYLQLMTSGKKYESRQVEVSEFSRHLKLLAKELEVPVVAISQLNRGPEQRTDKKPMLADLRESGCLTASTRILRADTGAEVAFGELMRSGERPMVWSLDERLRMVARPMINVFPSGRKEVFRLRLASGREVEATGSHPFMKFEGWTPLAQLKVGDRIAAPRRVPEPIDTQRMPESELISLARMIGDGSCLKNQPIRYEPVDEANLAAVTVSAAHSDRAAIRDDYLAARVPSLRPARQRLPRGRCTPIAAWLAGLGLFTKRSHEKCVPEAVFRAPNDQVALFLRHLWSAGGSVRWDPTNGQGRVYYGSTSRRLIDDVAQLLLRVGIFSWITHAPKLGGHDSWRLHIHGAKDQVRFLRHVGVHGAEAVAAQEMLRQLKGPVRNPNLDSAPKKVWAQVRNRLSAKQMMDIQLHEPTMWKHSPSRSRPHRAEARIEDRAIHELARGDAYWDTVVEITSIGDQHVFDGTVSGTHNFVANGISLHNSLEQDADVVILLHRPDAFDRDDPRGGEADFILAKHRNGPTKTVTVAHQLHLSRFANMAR

Protein RecA = target: T7, Protein RecA (Mycobacterium tuberculosis, UniProt P9WHJ3); assay: Fluorescence Cell-Free Homogeneous Dose Retest to Identify Inhibitors of RecA-Intein Splicing Activity. [Related pubchem assays (depositor defined):AID2097, AID2223, AID489010, AID492950]; format: functional
T7 sequence (P9WHJ3 whole entry): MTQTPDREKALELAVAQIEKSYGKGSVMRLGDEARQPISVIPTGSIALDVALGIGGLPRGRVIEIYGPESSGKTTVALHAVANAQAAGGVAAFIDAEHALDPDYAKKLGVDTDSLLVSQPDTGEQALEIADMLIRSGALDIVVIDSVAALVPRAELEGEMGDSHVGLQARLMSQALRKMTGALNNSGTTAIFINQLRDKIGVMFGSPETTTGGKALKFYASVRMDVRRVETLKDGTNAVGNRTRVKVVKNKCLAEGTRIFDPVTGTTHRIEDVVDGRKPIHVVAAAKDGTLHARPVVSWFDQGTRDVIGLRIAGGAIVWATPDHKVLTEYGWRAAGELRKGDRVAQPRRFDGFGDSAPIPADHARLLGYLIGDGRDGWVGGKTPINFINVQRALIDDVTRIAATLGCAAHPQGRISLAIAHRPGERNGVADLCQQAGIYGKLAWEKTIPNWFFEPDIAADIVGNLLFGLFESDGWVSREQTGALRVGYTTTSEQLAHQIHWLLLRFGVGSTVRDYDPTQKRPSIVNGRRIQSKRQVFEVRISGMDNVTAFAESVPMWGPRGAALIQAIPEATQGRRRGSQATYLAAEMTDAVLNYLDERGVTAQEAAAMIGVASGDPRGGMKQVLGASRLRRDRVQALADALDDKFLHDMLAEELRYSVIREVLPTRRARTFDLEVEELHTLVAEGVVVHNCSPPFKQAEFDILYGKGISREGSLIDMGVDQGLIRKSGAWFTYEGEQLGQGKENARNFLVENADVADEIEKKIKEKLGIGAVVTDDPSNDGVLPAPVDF

SMILES: C=CCOc1ccc(C(=O)C2=C(O)C(=O)N(CCCOC)C2c2ccncc2)cc1 (stereo not given)
- IC50 (Prothrombin): > 50 µM (inconclusive)

SMILES: O=C(CSCc1c(Cl)cccc1Cl)Nc1ccccc1-c1ccccc1
- IC50 [1]: 5.69 µM (active)
- IC50 [2]: 6.07 µM (active)

SMILES: CCCCCCc1cc2cc(S(=O)(=O)c3ccc(F)c(Cl)c3)c(=O)oc2cc1O
- EC50 [3]: 17.5 µM (active)
- CC50 (Vero): 10.9 µM (active)

SMILES: CCOc1ccc2nc(NC(=O)CS(=O)(=O)c3ccc(C)cc3)sc2c1
- IC50 [1]: > 12 µM (not active)
- IC50 [2]: > 35 µM (not active)

SMILES: Cc1ccc(OCCCCN(C)Cc2ccccc2)c(Br)c1
- IC50 [1]: 8.33 µM (active)
- IC50 [2]: 12 µM (not active)
- AC50 [4]: 9.59 µM (active)

SMILES: Cc1ccc2c(Cl)cc(Cl)c(OCC(=O)NCc3ccco3)c2n1
- IC50 (Estrogen receptor beta [5]): < 1.56 µM (active)
- IC50 (Estrogen receptor beta [6]): > 50 µM (not active)
- IC50 [7]: 12.5 µM (active)

SMILES: C1=C(N2CCOCC2)/C(=C/c2nc3ccccc3[nH]2)CC1
- IC50 (Estrogen receptor beta [5]): 23.8 µM (active)
- IC50 (Estrogen receptor beta [6]): > 109 µM (not active)

SMILES: Clc1ccc(C2=Nn3c(nnc3-c3[nH]nc4c3CCC4)SC2)cc1Cl
- IC50 [1]: 9.8 µM (active)
- IC50 [2]: 8.69 µM (active)

SMILES: CCc1ccc(S(=O)(=O)ON2C(=O)c3ccccc3C2=O)cc1
- IC50 (Prothrombin): 1.55 µM (active)
- IC50 (Genome polyprotein): > 100 µM (active)
- IC50 (Fatty acid synthase [8]): 2.41 µM (active)
- IC50 (Fatty acid synthase [9]): 1.28 µM (active)

SMILES: CCn1ncc(Br)c1C(=O)Nc1cc([N+](=O)[O-])ccc1C
- IC50 (Prothrombin): > 50 µM (not active)

SMILES: O=C1NC(Nc2nc3ccccc3s2)(C(F)(F)F)C(=O)N1C1CCCCC1 (stereo not given)
- CC50 (Vero): 3.44 µM (active)

SMILES: COc1c(Br)cc2c(C)c(C(=O)N3CCOCC3)oc2c1Br
- EC50 [10]: > 50 µM (active)

SMILES: Cc1ccc(/C=N/NC(=O)CSc2nc3ccccc3n2C)s1
- EC50 [10]: > 50 µM (active)
- AC50 (Cytochrome P450 2C9): inconclusive

SMILES: O=C(Nc1ccc(F)cc1)N[C@H]1CC[C@H](CCNC(=O)c2cc(Cl)cc(Cl)c2)O[C@H]1CO
- AC50 (Paired box protein Pax-8): 8.97 µM (active)
- AC50 [11]: 33 µM (active)

SMILES: O=C(C[C@@H]1CC[C@@H]2[C@H](COC[C@@H](O)CN2C(=O)c2ccncc2)O1)Nc1ccc(-c2ccccc2)cc1
- AC50 [12]: 15.3 µM (active)

SMILES: C/C=C/c1ccc([C@H]2[C@@H](CO)N(C(=O)Nc3ccccc3F)[C@H]2C#N)cc1
- AC50 [12]: 13.7 µM (active)

SMILES: COc1cccc(S(=O)(=O)N(C)C[C@@H]2Oc3ncc(C#Cc4ccc(OC)c(OC)c4)cc3C(=O)N([C@H](C)CO)C[C@@H]2C)c1
- AC50 [13]: 0.724 µM (active)
- AC50 [14]: 1.23 µM (active)
- AC50 [15]: 0.276 µM (active)
- AC50 [16]: 0.428 µM (active)

SMILES: CCCNC(=O)N1[C@H](C#N)[C@@H](c2ccccc2C2=CCCCC2)[C@@H]1CO
- AC50 [12]: 4.33 µM (active)

SMILES: O=C(O)c1ccccc1SCC(=O)N1CCOCC1
- IC50 (Prothrombin): > 50 µM (not active)

SMILES: COc1ccc2nc(NC(=O)Nc3ccccc3)sc2c1 [FRENTIZOLE]
- EC50 [10]: > 50 µM (active)

SMILES: CC(=O)O[C@@H]1C[C@H]2C(C)(C)C(=O)C=C[C@]2(C)[C@H]2CC[C@@]3(C)[C@H](c4ccoc4)OC(=O)[C@H]4O[C@]43[C@@]21C [GEDUNIN]
- CC50 (Vero): 22.2 µM (active)
- AC50 [17]: 4.57 µM (active)
- EC50 (Protein RecA): 16.1 µM (active)
